Literature values in article PMC12246617, “Cryo-EM structures reveal the PP2A–B55α and Eya3 interaction that can be disrupted by a peptide inhibitor” (The Journal of Biological Chemistry, 2025).

Test system: PP2A–B55
Details: 6,8-difluoro-4-methylumbelliferyl phosphate substrate; 30 mM Hepes [pH 7.0], 150 mM NaCl, 1 mM MnCl2, 1 mM DTT, 0.01% Triton X-100, 0.1 mg/ml BSA; ref 84 (Padi et al.); read-out: IC50 (phosphatase activity of PP2A–B55)
Excerpt: To identify the factor that led to this discrepancy, we first repeated our as ...

IC50: 1100 ± 84 nM
Substance: Eya3 peptide: Eya3 peptide (residues 62–108) of Padi et al. (RSSNDYTSQMYSAKPYAHILSVPVSETAYPGQTQYQTLQQTQPYAVY; UniProt Q99504 62-108, looked up, fragment)
